The source of these data is ChEMBL document CHEMBL3217535, “Synthesis and biological activity of furanylindazoles as inhibitors of hypoxia inducible factor (HIF)-1 transcriptional activity” (Medchemcomm, 2012).

Data set [1] is described as follows: Inhibition of HIF-1 (unknown origin) expressed in human HeLa cells after 12 hrs by HRE luciferase reporter gene assay. The format is cell-based.
In data set [2] the test system is Mus musculus. Briefly: In vivo inhibition of HIF1 transcriptional activity in nude mouse xenografted with human SUIT2/HRE-luc cells at 10 mg/kg, ip measured after 24 hrs by bioluminescence assay. The format is functional, organism-based. Set-up: dose 10 mg/kg.
The nature of data set [3]: Drug uptake in nucleus of human NCI-H226 cells azide-Alexa 488-based fluorescent microscopy. The format is ADME, cell-based.
The nature of data set [4]: Drug uptake in nucleus of human RXF631L cells azide-Alexa 488-based fluorescent microscopy. The format is ADME.
Data set [5] in a line: Drug uptake in granular vesicle of human RXF631L cells azide-Alexa 488-based fluorescent microscopy. The format is ADME.
Data set [6] is described as follows: Drug uptake in cytoplasm of human NCI-H226 cells azide-Alexa 488-based fluorescent microscopy. The format is ADME, cell-based.
A short description of data set [7]: Drug uptake in granular vesicle of human MKN1 cells azide-Alexa 488-based fluorescent microscopy. The format is ADME, cell-based. The conditions noted are these: mkn-1.
The nature of data set [8]: Drug uptake in granular vesicle of human NCI-H226 cells azide-Alexa 488-based fluorescent microscopy. The format is ADME, cell-based.
Data set [9] can be described thus: Drug uptake in cytoplasm of human RXF631L cells azide-Alexa 488-based fluorescent microscopy. The format is ADME.
Another data set has as its system NCI-H522. Description: Growth inhibition of human NCI-H522 cells by SRB assay. The format is functional.
The nature of data set [10]: Growth inhibition of human RXF631L cells by SRB assay. The format is functional. Conditions: for GI50: RXF 631.
The next data set deals with MDA-MB-231. Description: Growth inhibition of human MDA-MB-231 cells by SRB assay. The format is functional.
In the next data set the test system is SNB-75. Description: Growth inhibition of human SNB75 cells by SRB assay. The conditions noted are these: SNB-75, read-out: pGI50 (converted). The format is functional.
The next data set deals with NCI-H23. Briefly: Growth inhibition of human NCI-H23 cells by SRB assay. The format is functional. Conditions: NCI-H23, read-out: pGI50 (converted).
Data set [11] can be described thus: Growth inhibition of human SNB78 cells by SRB assay. The format is functional. The conditions noted are these: SNB-78, read-out: pGI50 (converted).
For the next data set, the system named is A549. Description: Growth inhibition of human A549 cells by SRB assay. The format is functional.
The subject of a further data set is HCT-116. Description: Growth inhibition of human HCT116 cells by SRB assay. The format is functional.
For the next data set, the system named is DU-145. Description: Growth inhibition of human DU145 cells by SRB assay. The format is functional. The conditions noted are these: DU-145, read-out: pGI50 (converted).
Data set [12] is described as follows: Growth inhibition of human MKN1 cells by SRB assay. The format is functional. The conditions noted are these: MKN-1, read-out: pGI50 (converted).
A short description of data set [13]: Growth inhibition of human SF295 cells by SRB assay. The format is functional. Conditions: SF-295.
Data set [14] is described as follows: Growth inhibition of human OVCAR8 cells by SRB assay. The format is functional. The conditions noted are these: OVCAR-8.
The nature of data set [15]: Growth inhibition of human HCC2998 cells by SRB assay. Conditions: HCC 2998, read-out: pGI50 (converted). The format is functional.
Data set [16] can be described thus: Growth inhibition of human OVCAR4 cells by SRB assay. The format is functional. The conditions noted are these: OVCAR-4, read-out: pGI50 (converted).
The nature of data set [17]: Growth inhibition of human MKN7 cells by SRB assay. The format is functional. The conditions noted are these: MKN-7.
Data set [18] is described as follows: Growth inhibition of human OVCAR3 cells by SRB assay. Conditions: OVCAR-3. The format is functional.
Data set [19] is described as follows: Growth inhibition of human LOXIMVI cells by SRB assay. The format is functional. Conditions: LOX IMVI.
Data set [20] is described as follows: Growth inhibition of human MKN45 cells by SRB assay. The format is functional. Conditions: MKN-45.
A further data set has as its system HT-29. Briefly: Growth inhibition of human HT-29 cells by SRB assay. The format is functional. Conditions: HT-29, read-out: pGI50 (converted).
Another data set concerns SK-OV-3. Description: Growth inhibition of human SKOV3 cells by SRB assay. The format is functional.
Another data set relates to St-4. Description: Growth inhibition of human St-4 cells by SRB assay. The conditions noted are these: St-4, read-out: pGI50 (converted). The format is functional.
The subject of data set [21] is Mus musculus. Description: In vivo inhibition of HIF1 transcriptional activity in nude mouse xenografted with human SUIT2/HRE-luc cells at 10 mg/kg, ip measured after 12 hrs by bioluminescence assay. Further details: dose 10 mg/kg. The format is functional, organism-based.
Data set [22] in a line: Growth inhibition of human SF539 cells by SRB assay. The format is functional. Conditions: SF-539, read-out: pGI50 (converted).
The next data set has as its system U-251. Briefly: Growth inhibition of human U251 cells by SRB assay. The format is functional.
The nature of data set [23]: Growth inhibition of human HBC5 cells by SRB assay. The format is functional.
A short description of data set [24]: Growth inhibition of human BSY1 cells by SRB assay. The format is functional. Conditions: BSY-1.
Data set [25] in a line: Growth inhibition of human DMS273 cells by SRB assay. The format is functional. The conditions noted are these: DMS-273.
A further data set has as its system SF-268. Description: Growth inhibition of human SF268 cells by SRB assay. Conditions: SF-268, read-out: pGI50 (converted). The format is functional.
A short description of data set [26]: Growth inhibition of human DMS114 cells by SRB assay. The format is functional. Conditions: DMS-114.
Data set [27] is described as follows: Growth inhibition of human MKN74 cells by SRB assay. The conditions noted are these: MKN-74, read-out: pGI50 (converted). The format is functional.
The subject of another data set is NCI-H460. Briefly: Growth inhibition of human NCI-H460 cells by SRB assay. The format is functional.
For another data set, the system named is NCI-H226. Description: Growth inhibition of human NCI-H226 cells by SRB assay. The format is functional.
A further data set concerns PC-3. Description: Growth inhibition of human PC3 cells by SRB assay. The format is functional.
The next data set deals with MCF7. Description: Growth inhibition of human MCF7 cells by SRB assay. The format is functional.
The test system of another data set is KM12. Description: Growth inhibition of human KM12 cells by SRB assay. The format is functional.
The nature of data set [28]: Growth inhibition of human OVCAR5 cells by SRB assay. Conditions: OVCAR-5. The format is functional.
Data set [29] can be described thus: Growth inhibition of human HCT15 cells by SRB assay. The format is functional. Conditions: HCT-15.
Another data set relates to ACHN. Description: Growth inhibition of human ACHN cells by SRB assay. The format is functional.
A short description of data set [30]: Growth inhibition of human HBC4 cells by SRB assay. The conditions noted are these: HBC4, read-out: pGI50 (converted). The format is functional.
Data set [31] in a line: Growth inhibition of human MKN28 cells by SRB assay. The format is functional. Conditions: MKN-28.

The source made the active and inactive calls. The calls are words filed in the database; no cut-off is given here.

In [1], `OCc1ccc(-c2nn(Cc3c(F)c(F)c(F)c(F)c3F)c3ccccc23)o1` returned an IC50 of 0.18 µM.
Same read-out and setting: as for `N#Cc1ccc(Cn2nc(-c3ccc(CO)o3)c3ccccc32)cc1`, the figure is 0.27 µM; as for `[N-]=[N+]=Nc1ccc(Cn2nc(-c3ccc(CO)o3)c3ccccc32)cc1`, 1.24 µM; as for `C#CCOCc1ccc(-c2nn(Cc3ccccc3)c3ccccc23)o1`, 7 µM.
Turning to `OCc1ccc(-c2nn(Cc3ccc(Cl)cc3)c3ccccc23)o1`, half-maximal inhibition in data set [1] (IC50) was put at 2.8 µM.
On the same count and under the same terms, the value for `C#CC(O)c1ccc(-c2nn(Cc3ccccc3)c3ccccc23)o1` (centres undefined) was above 30 µM; that for `O=Cc1ccc(-c2nn(Cc3ccccc3)c3ccccc23)o1` was 9 µM.
On the same count and under the same terms, as for `COc1ccc(Cn2nc(-c3ccc(CO)o3)c3ccccc32)cc1`, the figure is 0.97 µM; as for `OCc1ccc(-c2nn(Cc3ccccc3Cl)c3ccccc23)o1`, 0.65 µM.
As to `OCc1ccc(-c2nn(Cc3c(F)c(F)cc(F)c3F)c3ccccc23)o1`, in [1], the IC50 stood at 0.07 µM. The inhibition result in the data set on Mus musculus [2] is “inactive”.
In [1], `OCc1ccc(-c2nn(Cc3cccnc3)c3ccccc23)o1` yielded an IC50 of 0.46 µM. This lies in the sub-micromolar range.
On to `C#CCNc1ccc(Cn2nc(-c3ccc(CO)o3)c3ccccc32)cc1`, for which the Drug uptake result is recorded as “Active” in data set [3]; “Active” in data set [4]; “Active” in data set [5]; “Active” in [6]; “Active” in [7]; “Not Active” in [8]. In addition, the Drug uptake result in [9] was “Active”. Half-maximal inhibition in data set [1] (IC50) required 0.61 µM.
`OCc1ccc(-c2nn(Cc3ccccc3F)c3ccccc23)o1` had an IC50 in data set [1] of 0.26 µM.
Regarding `[N-]=[N+]=NCc1ccc(Cn2nc(-c3ccc(CO)o3)c3ccccc32)cc1`, the 50% inhibitory concentration (IC50) in data set [1] is 0.7 µM.
For `OCc1ccc(-c2nn(Cc3c(F)cccc3F)c3ccccc23)o1`, the GI50 is 17.8 µM with NCI-H522; 0.0447 µM in data set [10]; 25.1 µM in the data set with MDA-MB-231; above 100 µM in the data set with SNB-75; above 100 µM in the data set with NCI-H23; above 100 µM in [11]. For the same compound, the GI50 with A549 was 66.1 µM; in the data set on HCT-116, 58.9 µM; in the data set with DU-145, above 100 µM; in [12], above 100 µM; in data set [13] it was 49 µM; in [14] it was 77.6 µM. The GI50 in [15] was above 100 µM; in data set [16], above 100 µM; in data set [17] it was 36.3 µM; in data set [18], 75.9 µM; in [19] it was 24.5 µM; in data set [20], 24 µM. For the same compound, the GI50 in the data set on HT-29 was above 100 µM; with SK-OV-3, 53.7 µM; in the data set with St-4 it was above 100 µM; in data set [22] it was above 100 µM; with U-251 it was 95.5 µM; in data set [23], 30.2 µM. For the same compound, the GI50 was 29.5 µM in [24]; 50.1 µM in [25]; above 100 µM with SF-268; 41.7 µM in data set [26]; above 100 µM in data set [27]; 41.7 µM with NCI-H460. In addition, the GI50 was 0.0513 µM in the data set with NCI-H226; 43.7 µM with PC-3; 38 µM in the data set on MCF7; 79.4 µM in the data set on KM12; 72.4 µM in [28]; 41.7 µM in data set [29]. Also, the GI50 with ACHN is 74.1 µM; in data set [30] it was above 100 µM; in data set [31], 51.3 µM. Half-maximal inhibition in data set [1] (IC50) was put at 0.1 µM. In addition, the inhibition entry in the data set with Mus musculus [2] is “inactive”. Further, in the data set with Mus musculus [21], the inhibition result is “Active”.
As for `OCc1ccc(-c2nn(Cc3ccccc3)c3ccccc23)o1`, the GI50 in [10] is 0.158 µM; with NCI-H226, 0.224 µM. Besides, the TGI in data set [10] (RXF 631, read-out: pTGI (converted)) is 0.525 µM; in the data set with NCI-H226 (read-out: pTGI (converted)), 0.661 µM. The compound also displayed an IC50 in data set [1] of 2 µM. In the data set with Mus musculus [2], the inhibition result was “inactive”. In the data set on NCI-H226 (read-out: pLC50 (the source's name) (converted)), the CC50 was 9.77 µM.
For `OCc1ccc(-c2nn(Cc3ccc(F)cc3)c3ccccc23)o1`, the IC50 in data set [1] is 0.53 µM.
Same read-out and setting: as for `OCc1ccc(-c2nn(Cc3ccccn3)c3ccccc23)o1`, the figure is 0.3 µM.
On the same count and under the same terms, as for `OCc1ccc(-c2nn(Cc3ccccc3C(F)(F)F)c3ccccc23)o1`, the figure is 13.9 µM; as for `OCc1ccc(-c2nn(Cc3cccc(F)c3)c3ccccc23)o1`, 0.48 µM; as for `OCc1ccc(-c2nn(Cc3ccncc3)c3ccccc23)o1`, 0.83 µM.
On the same count and under the same terms, the value for `OCc1ccc(-c2nn(Cc3ccc(-c4ccccc4)cc3)c3ccccc23)o1` was 3.3 µM; that for `OCc1ccc(-c2nn(Cc3ccc(C(F)(F)F)cc3)c3ccccc23)o1` was 9.4 µM; that for `OCc1ccc(-c2nn(Cc3ccc(F)cc3F)c3ccccc23)o1` was 0.31 µM.
